This data set can be described thus: Human HepG2 cell viability assay in 384 well format. Set-up: dose 125 nL, time 70.5 hour; cytotoxicity at 70.5 h: concentration not given beside the values. Type of data set: toxicity, cell-based. The note with it: HepG2 cells, read-out: Inhibition.
As to `O=C(CCOc1ccc(Cl)cc1)N1CCN(c2cnccn2)CC1`, the cytotoxicity at 70.5 h is -11.5%.

For the compound `O=C(c1ccc(CN2CCCCC2)cc1)N1Cc2cnn(CCO)c2C1`, the cytotoxicity at 70.5 h amounted to 19.3%. As for `CC(C)c1nc2c(n1C)CCN(Cc1cccc(C(N)=O)c1)C2`, the cytotoxicity at 70.5 h was -13.9%.

As to `COc1ccnc(CN2CCC(O)(c3ccc(C)cn3)CC2)c1OC`, the cytotoxicity at 70.5 h was -5.69%. As for `Cc1cc(C(=O)N2CCCCC2c2nc3cc(F)ccc3[nH]2)no1` (centres undefined), the cytotoxicity at 70.5 h worked out at 27.9%. Then `O=C1CC(C(=O)Nc2nnc(-c3ccccn3)[nH]2)c2ccccc2N1` (centres undefined), with 6.91%; and `CCOc1ccc(C(=O)Nc2c(C)nc3ccccn3c2=O)cc1`, with 19.8%; and `O=C(Cc1ccccc1)N1CC[C@H]2[C@@H]1CCC(=O)N2Cc1ccncc1`, with 1.86%.

Turning to `CNS(=O)(=O)c1cc(C(=O)NC2COc3ccccc32)cc(C)c1C` (centres undefined), the cytotoxicity at 70.5 h was -13.5%. Consider `Cc1nn(C)c(C)c1NC(=O)CN1CCCC1c1c(C)nn(C)c1C` (centres undefined), for which the cytotoxicity at 70.5 h was -3.45%.

Consider `COc1ccc(-c2cnc(CN3CCCC3CO)o2)cc1` (centres undefined), for which the cytotoxicity at 70.5 h was found to be 7.93%. As for `CSCCNC(=O)c1cc(Br)cn1C(C)C`, the cytotoxicity at 70.5 h is -1.74%. For the compound `O=C(NCc1ccncc1)N1CCSCC1c1ccc(Cl)cc1` (centres undefined), the cytotoxicity at 70.5 h stood at 3.04%.

For `COc1ccc(C(=O)N2CCCC(n3nc(C)nc3C)C2)c(OC)c1` (centres undefined), the cytotoxicity at 70.5 h came out at 21.8%. Regarding `CCN(C)c1ncnc2c1CCN(CC1CCOC1)CC2` (centres undefined), the cytotoxicity at 70.5 h is -8.27%. As for `CCC(CC)NCC(c1ccccn1)N1CCOCC1` (centres undefined), the figure is 2.77%; as for `COCC1CC2(CCN(C(=O)c3cnc4ccccc4c3)CC2)CO1` (centres undefined), -0.655%; as for `COc1ccccc1C(C)(C)NC(=O)NCCC(=O)NC1CCCC1`, -12.5%.

Turning to `COc1ccc(C(=O)N(c2ccc(OC)c(F)c2)C(C)C)cn1`, the cytotoxicity at 70.5 h was -2.91%. As for `O=C(c1ccc[nH]1)N1CC2(CCN(c3nccs3)C2)C1`, the figure is -3.73%; as for `Cc1csc(N2CCCN(C(=O)CCN3CCCC3=O)CC2)n1`, -8.02%. `O=C(N[C@@H]1CN[C@@H]2CCCO[C@@H]21)c1cscn1`: the cytotoxicity at 70.5 h is -3.45%. As for `CN(C)CCNc1cc(-c2ncccc2O)c2cc[nH]c2n1`, the figure is -7.75%. As for `CC(C)(C)c1ncc2c(n1)CN(c1cc(NCCO)nc(N)n1)C2`, the figure is -12%; as for `N#Cc1cccc(N2CCCC3(CNCCO3)C2)n1` (centres undefined), -8.33%.

In the case of `CNC(=O)[C@@]12CCCN(c3ncccn3)[C@@H]1CN(c1ncc(C)cn1)C2`, the cytotoxicity at 70.5 h is -4.37%. As for `Cc1ccc(NC(=O)c2cc3c(=O)n(C)c(=O)n(C)c3nc2C)cc1Cl`, the figure is 1.87%; as for `Cc1nn(-c2ccccc2)c(C)c1CN1CCNCC1`, 27.3%; as for `COc1cc(I)c(Cl)cc1C(=O)N(C)C`, -20.5%. For `Cc1ncsc1C(=O)NC1CCN(CC(=O)N(C)c2ccccc2)CC1`, the cytotoxicity at 70.5 h is -1.98%. With `O=C([C@@H]1COC[C@H]2CN(C3CCCC3)C[C@H]21)N1CCC(F)CC1`, the cytotoxicity at 70.5 h was -1.78%.

Turning to `Cc1ccc(OCC(=O)NCC(C)C)nc1`, the cytotoxicity at 70.5 h is -3.31%. As to `Cc1noc(NCc2cc(F)ccc2F)n1`, the cytotoxicity at 70.5 h is -3.22%. Then `CN(C)c1ncc2c(n1)C1(CCN(CC3CC3)C1)COC2` (centres undefined), with -8.15%.

As to `O=C(Cc1ccc2c(c1)OCC2)Nc1nc(C(F)(F)F)n[nH]1`, the cytotoxicity at 70.5 h was 0.788%. In the case of `CCn1nc(C)c(CCNC(=O)C2CCCN(C(C)=O)C2)c1C` (centres undefined), the cytotoxicity at 70.5 h was -8.81%.

Take `O=C(NCC(=O)N1CC2(CCCC2)c2c(F)cccc21)C1CC1`: the cytotoxicity at 70.5 h is 0.771%.

On to `c1ccc(COC2CCN(c3cncc(-n4cccn4)n3)CC2)cc1`, for which the cytotoxicity at 70.5 h was -9.06%.

In the case of `CCc1ncc(CN2CCC3(CCCN(CC4CCC4)C3)C2)cn1` (centres undefined), the cytotoxicity at 70.5 h is -6.02%.

The record behind these values is ChEMBL document CHEMBL3507680, “University of Dundee, Gates Library screen for HepG2 cell viability”.
